This test concerns the target protein kinase C. In words: inhibition of protein kinase C in vitro (protein kinase-induced incorporation of 32P from [γ-32P]ATP into histone). The format is biochemical. To be noted: histone substrate, read-out: IC50: concentration which reduces by 50% the protein kinase-induced incorporation of ^32 P from [γ-^32 P]ATP into histone. The source says: The IC50 figures in the following Table, represent that concentration of test compound which reduces by 50% the protein kinase-induced incorporation of ^32 P from [γ-^32 P]ATP into histone.

Take `Cn1cc(C2=C(c3cn(CCCN=C=S)c4ccccc34)C(=O)NC2=O)c2ccccc21` [3-[1-(3-isothiocyanatopropyl)-3-indolyl]-4-(1-methyl-3-indolyl)-1H-pyrrole-2,5-dione]: the IC50 came to 8 nM.
Then `Cn1cc(C2=C(c3cn(CCC(N)=O)c4ccccc34)C(=O)NC2=O)c2ccccc21` [3-[1-(2-carbamoylethyl)-3-indolyl]-4-(1-methyl-3-indolyl)-1H-pyrrole-2,5-dione], with 500 nM.
The value for `Cn1cc(C2=C(c3cn(CCCSC(=N)N)c4ccccc34)C(=O)NC2=O)c2ccccc21` [3-[1-[3-(amidinothio)propyl]-3-indolyl]-4-(1-methyl-3-indolyl)-1H-pyrrole-2,5-dione] was 10 nM.
